We go through 3 compounds from patent US9062119B2, “Modified peptide toxins” (University of Debrecen, priority 2011, dated 2015).

For orientation: pKd means −log10 of the Kd, conventionally taken in molar units. In general, pIC50 refers to the IC50 on a negative log10 scale, so that one unit is a factor of ten.

The target in assay [1] is T1, Kv1.3 channels (Homo sapiens, UniProt P22001).
T1 construct: endogenous in cells
Put plainly: Whole-cell patch-clamp block of Kv1.3 currents in activated human peripheral T lymphocytes. In kind it is cell-based. The method, then:
(§1) Dose-response relationships of the synthetic wild-type toxin and the single and double mutants on Kv1.3 channels The blocking efficiency of the toxins was tested on activated lymphocytes. The remaining current fraction (RCF) was calculated as I/I0, where I and I0 represent the whole-cell current amplitude in the presence and absence of the toxin at the indicated concentrations, respectively. Data points are plotted with error bars representing SEM and were fitted with a Hill-equation to obtain the Kd of the binding.
(§2) Kv1.3 currents were measured in human peripheral T lymphocytes. Heparinized human peripheral venous blood was obtained from healthy volunteers. Mononuclear cells were separated by Ficoll-Hypaque density gradient centrifugation. Collected cells were washed twice with Ca^2+ and Mg^2+ free Hank's solution containing 25 mM HEPES buffer (pH 7.4). Cells were cultured in a 5% CO2 incubator at 37° C. in 24 well culture plates in RPMI-1640 supplements with 10% FCS (Sigma-Aldrich, Hungary) 100 μg/ml penicillin, 100 μg/ml streptomycin and 2 mM L-glutamine at 0.5×10^6/ml density for 3-4 days. The culture medium also contained 2.5 or 5 μg/ml of phytohemagglutinin A (PHA-P, Sigma-Aldrich Kft, Hungary) to increase K^+ channel expression [Bagdany M, et al. Mol Pharmacol 2005; 67:1034-1044].
(§3) Whole-cell currents were measured in voltage-clamped cells using Axopatch 200A and Multiclamp 700B amplifiers connected to a personal computer using Axon Digidata 1200 and 1322A data acquisition hardware, respectively (Molecular Devices Inc., Sunnyvale, Calif.). Series resistance compensation up to 70% was used to minimize voltage errors and achieve good voltage-clamp conditions. […] The measured osmolarity of the external solutions was between 302 and 308 mOsm. […] The measured osmolarity of the internal solutions was approximately 295 mOsm. Bath perfusion around the measured cell with different test solutions was achieved using a gravity-flow perfusion system. […]
(In patch-clamp work, channel activity is measured electrically.)

For a further assay, the target named is T2, hKv1.2 (Homo sapiens, UniProt P16389).
T2 construct: expressed in transfected cells; host or cells: Cos-7 cells, co-transfected with a separate GFP plasmid
The note with it: natural toxin, Bagdany et al., 2005, read-out: Kd for Kv1.2, cited from earlier work.

The target of assay [2] is T1, Kv1.3 channels. The note with it: natural toxin, Bagdany et al., 2005; cited from earlier work.
The subject of assay [3] is Kv1.3 channels. Put plainly: Whole-cell patch-clamp block of Kv1.3 currents in activated human peripheral T lymphocytes. In kind it is cell-based. Here is the method: as §1, §2, §3
Assay [4] deals with Kv1.3. The experiment in a line: Literature block of Kv1.3 by ADWX-1. From the text:
Han, S et al. have applied a structural approach [Han S et al, J Biol Chem 2008; 283(27):19058-19065.] to improve Kv1.3 selectivity of scorpion toxins. The authors started from the BmKTX scorpion toxin (Bhutus martensi) and designed a peptide with three point mutations based on binding studies to the Kv1.3 K channel at the molecular interaction level. Specifically, glycine (G) 11 was substituted with arginine (R), isoleucine (I) 28 with threonine (T) and aspartate (D) 33 with histidine (H) (BmKTX-Arg11Thr28His33 or ADWX-1 in short). […] 2009 231(1): 59-87.].

The subject of assay [5] is Kv1.3. The note with it: found by Cahalan and Chandy 2009; read-out: IC50 for block of Kv1.3; cited from earlier work.

pIC50, pKd: −log10 of the molar value. Read-outs that look alike come from different tables or passages of the source. Where a SMILES comes first, the peptide text is derived from it.

T2 sequence (P16389 whole entry): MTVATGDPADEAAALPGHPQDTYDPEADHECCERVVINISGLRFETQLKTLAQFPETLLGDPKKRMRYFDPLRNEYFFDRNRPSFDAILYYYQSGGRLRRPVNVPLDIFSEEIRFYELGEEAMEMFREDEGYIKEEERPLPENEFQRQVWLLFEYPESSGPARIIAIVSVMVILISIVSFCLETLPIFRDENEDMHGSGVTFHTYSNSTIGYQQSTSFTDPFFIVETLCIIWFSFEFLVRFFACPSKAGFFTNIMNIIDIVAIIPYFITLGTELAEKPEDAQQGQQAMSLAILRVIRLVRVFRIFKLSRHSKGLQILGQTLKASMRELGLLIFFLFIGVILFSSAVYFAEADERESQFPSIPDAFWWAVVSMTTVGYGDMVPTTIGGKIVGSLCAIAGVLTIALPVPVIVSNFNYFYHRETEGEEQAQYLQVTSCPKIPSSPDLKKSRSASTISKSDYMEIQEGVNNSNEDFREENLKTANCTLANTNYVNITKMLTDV
T1 sequence (P22001 whole entry): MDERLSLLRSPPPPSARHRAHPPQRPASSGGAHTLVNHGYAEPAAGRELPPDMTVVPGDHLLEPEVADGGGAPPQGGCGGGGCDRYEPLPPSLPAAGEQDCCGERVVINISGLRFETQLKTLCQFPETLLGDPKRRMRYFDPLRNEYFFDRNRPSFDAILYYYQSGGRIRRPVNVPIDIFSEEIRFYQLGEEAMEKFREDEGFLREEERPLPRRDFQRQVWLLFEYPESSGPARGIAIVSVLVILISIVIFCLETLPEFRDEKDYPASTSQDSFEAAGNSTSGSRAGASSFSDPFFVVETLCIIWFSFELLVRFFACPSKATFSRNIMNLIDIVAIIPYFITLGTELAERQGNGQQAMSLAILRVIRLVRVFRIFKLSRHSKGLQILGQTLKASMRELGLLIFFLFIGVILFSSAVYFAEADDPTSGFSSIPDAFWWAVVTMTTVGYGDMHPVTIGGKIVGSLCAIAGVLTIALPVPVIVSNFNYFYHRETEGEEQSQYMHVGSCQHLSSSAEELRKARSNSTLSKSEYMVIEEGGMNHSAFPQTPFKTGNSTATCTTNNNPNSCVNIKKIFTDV

For the compound `CSCC[C@@H]1NC(=O)[C@@H]2CSSC[C@H](NC(=O)[C@H](CCC(=O)O)NC(=O)[C@H](CCCCN)NC(=O)[C@H](CC(N)=O)NC(=O)[C@H](C)NC(=O)[C@H](C)NC(=O)[C@H](C)N)C(=O)N[C@@H]([C@@H](C)O)C(=O)NCC(=O)N3CCC[C@H]3C(=O)N[C@@H](CCC(N)=O)C(=O)N[C@@H](Cc3c[nH]cn3)C(=O)N[C@H]3CSSC[C@H](NC(=O)[C@H](CCCCN)NC(=O)[C@H](CCCNC(=N)N)NC(=O)[C@H](CC(N)=O)NC1=O)C(=O)N[C@@H](CCCCN)C(=O)N[C@H]1CSSC[C@H](NC(=O)[C@H](Cc4ccccc4)NC(=O)[C@H](CC(N)=O)NC(=O)[C@H]([C@@H](C)O)NC3=O)C(=O)N[C@@H](CCCNC(=N)N)C(=O)N[C@@H](CC(=O)O)C(=O)N[C@@H](C)C(=O)N[C@@H](CCCCN)C(=O)N[C@@H](CSSC[C@@H](C(=O)N[C@@H](CCCCN)C(=O)O)NC(=O)[C@H](CC(N)=O)NC(=O)[C@H]([C@@H](C)O)NC1=O)C(=O)N[C@@H]([C@@H](C)O)C(=O)N[C@@H](Cc1c[nH]cn1)C(=O)NCC(=O)N[C@@H](CCCCN)C(=O)N2` [(N-AAAN, K16D, N17A, F32T)] (HELM PEPTIDE1{A.A.A.N.K.E.C.T.G.P.Q.H.C.T.N.F.C.R.D.A.K.C.T.H.G.K.C.M.N.R.K.C.K.C.T.N.C.K}$PEPTIDE1,PEPTIDE1,7:R3-27:R3|PEPTIDE1,PEPTIDE1,13:R3-32:R3|PEPTIDE1,PEPTIDE1,17:R3-34:R3|PEPTIDE1,PEPTIDE1,22:R3-37:R3$$$V2.0; N-terminus and C-terminus assumed; bridges inferred), on Kv1.3 channels [1], the pKd is 6.40.
In the case of Anuroctoxin [natural toxin], the values for the pKd at hKv1.2 (listed as Anuroctoxin), on hKv1.2 and on Kv1.3 channels [2] were 8.21, 8.21 and 9.14, respectively. Besides, the “selectivity ratio SR=Kd[1.2]/Kd[1.3]” value in the assay on Kv1.3 channels [3] stood at 9. Besides, the “selectivity for Kv1.3 over Kv1.2” value in the assay on Kv1.3 channels [3] (ratio of Kd,Kv1.2 and Kd,Kv1.3) came to 9 fold.
Take BmKTX-Arg11Thr28His33 [ADWX-1]: the “lower potency of Cahalan/Chandy value versus Han value” in the assay with Kv1.3 [4] turned out to be 1000 fold. In addition, the pIC50 in the assay on Kv1.3 [5] was 8.92.
